Data: patent US7427616B2, “Condensed pyridines and pyrimidines with tie2 (TEK) activity” (AstraZeneca AB, priority 2002, dated 2008)
pIC50: −log10 of the molar value.

Target: T1, Tie2 receptor (Homo sapiens, UniProt Q02763)
T1 construct: one can use natural cell lines or primary cells which are known to express the receptor of choice; endogenous in cells; host or cells: EA.hy926/B3 cells (HUVEC named as alternative)
Assay: Cellular Tie2 autophosphorylation assay (Test (b))
Assay type: cell-based
Details: Ang1 ligand stimulated autophosphorylation of cellular Tie2 receptor, e.g. EA.hy926/B3 cells
Excerpt: b. Cellular Tie2 Autophosphorylation Assay
This assay is based on measuring the ability of compounds to inhibit autophosphorylation of the Tie2 receptor which normally leads to the production of “activated” receptor that in turn initiates the particular signal transduction pathways associated with the receptor function.
Autophosphorylation can be achieved by a number of means. It is known that expression of recombinant kinase domains in baculoviral systems can lead to the production of phosphorylated and activated receptor. […] In these cases the natural, external cell surface domain of the receptor has been replaced with that of a domain which is known to be readily dimerised via the addition of the appropriate ligand (e.g. TrkA-Tie2/NGF ligand (Marron, M. B., et al., 2000 Journal of Biological Chemistry: 275:39741-39746) or C-fms-Tie-1/CSF-1 ligand (Kontos, C. D., et al., 2002 Molecular and Cellular Biology: 22, 1704-1713). Thus when the chimaeric receptor expressed in a host cell line and the respective ligand is added, this induces autophosphorylation of the chimeric receptor's kinase domain. This approach has the advantage of often allowing a known (and often easily obtained) ligand to be used instead of having to identify and isolate the natural ligand for each receptor of interest. […]

T1 sequence (Q02763 23-1124): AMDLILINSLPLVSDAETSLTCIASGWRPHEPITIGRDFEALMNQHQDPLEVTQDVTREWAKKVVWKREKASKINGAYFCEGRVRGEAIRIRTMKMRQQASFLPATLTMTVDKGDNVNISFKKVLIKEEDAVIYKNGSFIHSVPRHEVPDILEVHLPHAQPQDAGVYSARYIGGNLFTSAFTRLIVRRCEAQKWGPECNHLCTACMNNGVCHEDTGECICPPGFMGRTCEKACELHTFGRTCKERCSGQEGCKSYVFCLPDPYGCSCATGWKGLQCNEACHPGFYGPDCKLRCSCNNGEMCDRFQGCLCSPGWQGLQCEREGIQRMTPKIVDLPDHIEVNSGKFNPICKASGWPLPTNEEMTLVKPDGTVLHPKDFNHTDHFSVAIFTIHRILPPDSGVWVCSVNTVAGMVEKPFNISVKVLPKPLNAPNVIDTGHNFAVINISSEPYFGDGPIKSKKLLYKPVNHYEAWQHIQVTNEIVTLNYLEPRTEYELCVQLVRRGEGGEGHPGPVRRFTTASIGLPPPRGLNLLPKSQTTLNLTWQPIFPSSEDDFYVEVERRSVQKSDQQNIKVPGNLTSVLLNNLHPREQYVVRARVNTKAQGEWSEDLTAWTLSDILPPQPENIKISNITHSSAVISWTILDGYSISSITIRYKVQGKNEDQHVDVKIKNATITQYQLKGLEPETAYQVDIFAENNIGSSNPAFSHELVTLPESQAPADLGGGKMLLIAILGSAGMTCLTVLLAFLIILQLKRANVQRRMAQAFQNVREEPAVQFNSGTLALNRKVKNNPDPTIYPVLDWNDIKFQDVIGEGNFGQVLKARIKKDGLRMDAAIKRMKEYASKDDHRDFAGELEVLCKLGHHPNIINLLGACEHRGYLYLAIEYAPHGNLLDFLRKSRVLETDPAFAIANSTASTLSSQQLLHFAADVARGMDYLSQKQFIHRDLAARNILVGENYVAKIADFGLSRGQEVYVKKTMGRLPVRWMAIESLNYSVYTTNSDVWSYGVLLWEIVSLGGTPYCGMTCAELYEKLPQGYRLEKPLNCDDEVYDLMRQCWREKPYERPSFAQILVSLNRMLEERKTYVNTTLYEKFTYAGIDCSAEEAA

pIC50	SMILES
5.57	Cn1cnc(-c2ccccc2)c1-c1nc2c(N)ncnc2s1 [Example 2, 2-(1-Methyl-4-phenyl-1H-imidazol-5-yl)[1,3]thiazolo[5,4-d]pyrimidin-7-amine]
5.66	CSc1ncnc2sc(-c3c(-c4ccccc4)ncn3C)cc12 [Example 7, 6-(1-Methyl-4-phenyl-1H-imidazol-5-yl)-4-(methylthio)thieno[2,3d]pyrimidine]
